Target: T1, hOX2R (Homo sapiens, UniProt O43614)
T1 construct: expressed in transfected cells; host or cells: CHO cells (G418 selection)
T1 sequence (O43614 1-444): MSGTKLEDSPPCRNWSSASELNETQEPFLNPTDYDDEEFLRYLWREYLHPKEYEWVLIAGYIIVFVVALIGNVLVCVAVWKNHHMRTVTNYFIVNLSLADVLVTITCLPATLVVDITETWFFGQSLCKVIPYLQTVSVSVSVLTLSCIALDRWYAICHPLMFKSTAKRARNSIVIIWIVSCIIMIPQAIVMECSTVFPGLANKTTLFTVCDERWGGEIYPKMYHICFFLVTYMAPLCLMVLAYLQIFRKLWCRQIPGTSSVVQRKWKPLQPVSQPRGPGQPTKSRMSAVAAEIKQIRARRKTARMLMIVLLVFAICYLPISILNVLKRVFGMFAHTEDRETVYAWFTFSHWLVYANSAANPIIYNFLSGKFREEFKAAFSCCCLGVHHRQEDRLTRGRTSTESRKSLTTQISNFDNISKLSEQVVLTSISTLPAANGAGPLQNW
Assay: hOX2R IPone assay (orexin receptor agonism)
Format: cell-based
Conditions: IPone readout; for hOX2R_Ipone max %act: maximal activation; for EC50: orexin receptor agonist, read-out: hOX2R_IPone EC50

SMILES | hOX2R_Ipone max %act | EC50
CCN1C(=O)N[C@@H](CCC(C)(F)F)CCCCCOc2nc(c(C)n3ccnc23)-c2cc(ccn2)[C@H]1C [Example 160, (3R,7R,E)-7-(3,3-difluorobutyl)-4-ethyl-15,3-dimethyl-13-oxa-4,6-diaza-1(6,8)-imidazo[1,2-a]pyrazina-2(2,4)-pyridinacyclotridecaphan-5-one] | 101.4% | 0.77 nM
CCN1C(=O)N[C@@H](CCC(F)(F)F)CCOCCOc2nc(cn3ccnc23)-c2cc(ccn2)[C@H]1C [Example 161, (3R,7S,E)-4-ethyl-3-methyl-7-(3,3,3-trifluoropropyl)-10,13-dioxa-4,6-diaza-1(6,8)-imidazo[1,2-a]pyrazina-2(2,4)-pyridinacyclotridecaphan-5-one] | 101.7% | 2.66 nM
CCN1C(=O)N[C@@H](CCC(F)(F)F)CCCCCOc2nc(cc3cccnc23)-c2cc(ncc2OC)[C@H]1C [Example 162, (3R,7R)-4-ethyl-25-methoxy-3-methyl-7-(3,3,3-trifluoropropyl)-13-oxa-4,6-diaza-1(6,8)-naphthyridina-2(4,2)-pyridinacyclotridecaphan-5-one] | 104.8% | 5.9 nM
CCN1C(=O)N[C@@H](CCC(F)(F)F)C/C=C/CCOc2nc(cc3cccnc23)-c2cc(ncc2OC)[C@H]1C [Example 163, (3R,7S,E)-4-ethyl-25-methoxy-3-methyl-7-(3,3,3-trifluoropropyl)-13-oxa-4,6-diaza-1(6,8)-naphthyridina-2(4,2)-pyridinacyclotridecaphan-9-en-5-one] | 104.4% | 10.9 nM
CCN1C(=O)N[C@@H](CCC(F)(F)F)CCOCCOc2nc(cn3ncnc23)-c2cc(ncc2OC)[C@H]1C [Example 164, (3R,7S,E)-4-ethyl-25-methoxy-3-methyl-7-(3,3,3-trifluoropropyl)-10,13-dioxa-4,6-diaza-1(6,8)-[1,2,4]triazolo[1,5-a]pyrazina-2(4,2)-pyridinacyclotridecaphan-5-one] | 100.1% | 2.62 nM
CCN1C(=O)N[C@@H](CCC(F)(F)F)CCCCCOc2cc(nn3cc(C)nc23)-c2cc(ncc2OC)[C@H]1C [Example 166, (3R,7R,E)-4-ethyl-25-methoxy-12,3-dimethyl-7-(3,3,3-trifluoropropyl)-13-oxa-4,6-diaza-1(6,8)-imidazo[1,2-b]pyridazina-2(4,2)-pyridinacyclotridecaphan-5-one] | 102% | 15.1 nM
CCN1C(=O)N[C@@H](CCC(F)(F)F)CCCCCOc2cc(nn3c(C)cnc23)-c2cc(ncc2OC)[C@H]1C [Example 168, (3R,7R,E)-4-ethyl-25-methoxy-13,3-dimethyl-7-(3,3,3-trifluoropropyl)-13-oxa-4,6-diaza-1(6,8)-imidazo[1,2-b]pyridazina-2(4,2)-pyridinacyclotridecaphan-5-one] | 99.31% | 2.33 nM
CCN1C(=O)N[C@@H](CCC(C)(F)F)CCOCCOc2nc(cc3ncnn23)-c2cc(ncc2OC)[C@H]1C [Example 169, (3R,E)-7-(3,3-difluorobutyl)-4-ethyl-25-methoxy-3-methyl-10,13-dioxa-4,6-diaza-1(7,5)-[1,2,4]triazolo[1,5-c]pyrimidina-2(4,2)-pyridinacyclotridecaphan-5-one] | 111.8% | 3.36 nM
CCN1C(=O)N[C@@H](CCC(C)(F)F)CCOCCOc2nc(cc3c(C)cnn23)-c2cc(ncc2OC)[C@H]1C [Example 171, (3R,7S,E)-7-(3,3-difluorobutyl)-4-ethyl-25-methoxy-3-methyl-9,13-dioxa-4,6-diaza-1(5,7)-pyrazolo[1,5-c]pyrimidina-2(4,2)-pyridinacyclotridecaphan-5-one] | 107.9% | 1.45 nM
CCN1C(=O)NC(CCC(C)(F)F)CCCCCOc2nc(c(C)n3ncnc23)-c2cc(ncc2OC)C1C [Example 172, (3R,7R,E)-7-(3,3-difluorobutyl)-4-ethyl-25-methoxy-15,3-dimethyl-13-oxa-4,6-diaza-1(6,8)-[1,2,4]triazolo[1,5-a]pyrazina-2(4,2)-pyridinacyclotridecaphan-5-one] | 101% | 7.2 nM
CCN1C(=O)N[C@@H](CCC(F)(F)F)COCCCOc2nc(cn3cnnc23)-c2cc(ncc2OC)[C@H]1C [Example 173, (3R,7S,E)-4-ethyl-25-methoxy-3-methyl-7-(3,3,3trifluoropropyl)-9,13-dioxa-4,6-diaza-1(6,8)-[1,2,4]triazolo[4,3-a]pyrazina-2(4,2)-pyridinacyclotridecaphan-5-one] | 103.9% | 3.71 nM
CCN1C(=O)N[C@@H](CCC(F)(F)F)COCCCOc2nc(cn3ncnc23)-c2cc(ncc2OC)[C@H]1C [Example 174, (3R,7S,E)-4-ethyl-25-methoxy-3-methyl-7-(3,3,3-trifluoropropyl)-9,13-dioxa-4,6-diaza-1(6,8)-[1,2,4]triazolo[1,5-a]pyrazina-2(4,2)-pyridinacyclotridecaphan-5-one] | 103.8% | 3.08 nM
CCN1C(=O)N[C@@H](CCC(C)(F)F)CCCCCOc2nc(cc3ncnn23)-c2cc(ncc2OC)[C@H]1C [Example 176] | 99.6% | 2.97 nM
CCN1C(=O)NCCCCCCCOc2nc(cn3ccnc23)-c2cc(ncc2OC)[C@H]1C [Example 177, (R,E)-4-ethyl-25-methoxy-3-methyl-14-oxa-4,6-diaza-1(6,8)-imidazo[1,2-a]pyrazina-2(4,2)-pyridinacyclo-tetradecaphan-5-one] | 100.5% | 62.5 nM
CCN1C(=O)NCCCCOc2nc(cn3ccnc23)-c2cc(ncc2OC)[C@H]1C [Example 178, (R,E)-4-ethyl-25-methoxy-3-methyl-11-oxa-4,6-diaza-1(6,8)-imidazo[1,2-a]pyrazina-2(4,2)-pyridinacycloun-decaphan-5-one] | 88% | 325 nM
CCN1C(=O)N[C@@H](CCC(F)(F)F)CCOCCOc2nc(cn3ncnc23)-c2c(OC)cnc(c2F)C1C (stereo partly drawn) [Example 179, (7S,E)-4-ethyl-23-fluoro-25-methoxy-3-methyl-7-(3,3,3-trifluoropropyl)-10,13-dioxa-4,6-diaza-1(6,8)-[1,2, 4]triazolo[1,5-a]pyrazina-2(4,2)-pyridinacyclotridecaphan-5-one] | 100.8% | 8.24 nM
CCN1C(=O)N[C@@H](CCC(C)(F)F)CCOCCOc2nc(cn3ncnc23)-c2ccnc(c2)[C@H]1C [Example 180] | 100.8% | 4.15 nM
CCN1C(=O)NC(CCOC(F)F)CCCCCOc2nc(cn3ccnc23)-c2cc(ncc2OC)[C@H]1C (stereo partly drawn) [Example 182, (3R,E)-7-(2-(difluoromethoxy)ethyl)-4-ethyl-25-methoxy-3-methyl-13-oxa-4,6-diaza-1(6,8)-imidazo[1,2-a]pyrazina-2(4,2)-pyridinacyclotridecaphan-5-one] | 98.9% | 0.85 nM
CCN1C(=O)NC(CC2(F)CC2)CCCCCOc2nc(cn3ccnc23)-c2cc(ncc2OC)[C@H]1C (stereo partly drawn) [Example 183, (3R,E)-4-ethyl-7-((1-fluorocyclopropyl)methyl)-25-methoxy-3-methyl-13-oxa-4,6-diaza-1(6,8)-imidazo[1,2-a]pyrazina-2(4,2)-pyridinacyclotridecaphan-5-one] | 100.2% | 1 nM
CCN1C(=O)NC(CCCC(F)F)CCCCCOc2nc(cn3ccnc23)-c2cc(ncc2OC)[C@H]1C (stereo partly drawn) [Example 184, (3R,E)-7-(4,4-difluorobutyl)-4-ethyl-25-methoxy-3-methyl-13-oxa-4,6-diaza-1(6,8)-imidazo[1,2-a]pyrazina-2(4,2)-pyridinacyclotridecaphan-5-one] | 101.1% | 0.78 nM
CCN1C(=O)NC(COC(C)C)CCCCCOc2nc(cn3ccnc23)-c2cc(ncc2OC)[C@H]1C (stereo partly drawn) [Example 185, (3R,E)-4-ethyl-7-(isopropoxymethyl)-25-methoxy-3-methyl-13-oxa-4,6-diaza-1(6,8)-imidazo[1,2-a]pyrazina-2(4,2)-pyridinacyclotridecaphan-5-one] | 102.1% | 2.03 nM
CCN1C(=O)NC(CC(F)F)CCCCCOc2nc(cn3ccnc23)-c2cc(ncc2OC)[C@H]1C (stereo partly drawn) [Example 186, (3R,E)-7-(2,2-difluoroethyl)-4-ethyl-25-methoxy-3-methyl-13-oxa-4,6-diaza-1(6,8)-imidazo[1,2-a]pyrazina-2(4,2)-pyridinacyclotridecaphan-5-one] | 102.3% | 1.02 nM
CCN1C(=O)NC(COCC(F)(F)F)CCCCCOc2nc(cn3ccnc23)-c2cc(ncc2OC)[C@H]1C (stereo partly drawn) [Example 188, (3R,E)-4-ethyl-25-methoxy-3-methyl-7-((2,2,2-trifluoroethoxy)methyl)-13-oxa-4,6-diaza-1(6,8)-imidazo [1,2-a]pyrazina-2(4,2)-pyridinacyclotridecaphan-5-one] | 100.6% | 0.74 nM
CCN1C(=O)NC(C2CCOC2)CCCCCOc2nc(cn3ccnc23)-c2cc(ncc2OC)[C@H]1C (stereo partly drawn) [Example 189, (3R,E)-4-ethyl-25-methoxy-3-methyl-7-(tetrahydrofuran-3-yl)-13-oxa-4,6-diaza-1(6,8)-imidazo[1,2-a]pyrazina-2(4,2)-pyridinacyclotridecaphan-5-one] | 99.85% | 0.69 nM

From patent US12686690B2, “Macrocyclic urea orexin receptor agonists” (Merck Sharp & Dohme LLC, priority 2020, dated 2026)
